Results on 7 compounds are retold here after US11052087B2, “Anti-HIV compounds” (priority 2018, dated 2021).

Data set [1] can be described thus: Kinetic Solubility Analysis (CLND). It counts as physicochemical. The conditions noted are these: 26 °C, kinetic from dmso stock. On the procedure: Kinetic Solubility Analysis (CLND) Buffer Preparation:
0.1N HCl: Hydrochloric acid, 0.1N standardized solution.
1×PBS, 7.4: Phosphate Buffered Saline solution 10×, PBS 50 mL was added to approximately 450 mL HPLC grade H2O. The volume of the solution was then adjusted to 500 mL for a total dilution factor of 1:10 and a final PBS concentration of IX.
Kinetic Solubility from DMSO Stocks:
The final DMSO concentration is 1.0% and maximum theoretical compound concentration is 100 μM (assuming stock concentration of 10 mM). The filter plate was sealed. […] The collection plate was sealed for analysis. Filtrates were injected into the nitrogen detector for quantification.
The equimolar nitrogen response of the detector was calibrated using standards which spanned the dynamic range of the instrument from […] nitrogen. The filtrates were quantified with respect to this calibration curve. The calculated solubility values were corrected for background nitrogen present in the DMSO and the media used to prepare the samples.

The nature of data set [2]: in vivo. Particulars: beagle, dog, po.
Experimental: Pharmacokinetic Profiling Dog PK
(§6) Compound 11 was formulated in a suspension formulation (1% HPMC and 0.05% Tween 20 in DI Water) and administered orally at 10 mg-eq/kg to a dosing group consisting of three non-naïve male beagle dogs. At dosing, the animals weighed between 9 to 12 kg. The animals were fasted overnight prior to dose administration and up to four hours after dosing. Serial venous blood samples (approximately 1.0 mL each) were obtained at pre-dose, 0.25, 0.50, 1, 2, 4, 6, 8, 12, and 24 hours post-dose. The blood samples were collected into Vacutainer™ tubes containing EDTA-K2 as the anti-coagulant and were immediately placed on wet ice pending centrifugation for plasma. An LC/MS/MS method was used to measure the concentration of compound 11 and compound D in plasma. […] In a second experiment, compound D was dosed orally as a suspension using the same formulation and dose level.
The nature of data set [3]: Liver microsomal stability (rat). The data set is classed as in vitro ADME. The conditions noted are these: rat liver microsomes 0.5 mg/mL, 1 μM compound, NADPH-regenerating system, 37° C. As to the method: (§1) Liver Microsomal Stability Protocol
(§2) Test compounds and one control compound (verapamil) were tested in 3 different species in duplicate sets.
(§3) Test compound concentration: 1 μM; Protein concentration: 0.5 mg/mL (for rat and human liver microsomes); Cofactor: NADPH-Regenerating system (NRS) solution. Time-points: 2, 12, 25, 45, and 65 minutes.
(§4) Reaction composition (in each incubation well) contains:
(§5) At an incubation temperature of 37° C., the reaction was started with addition of NADPH Regeneration System, at each time point, 25 μL of the reaction mixture was removed and added to a plate with 225 μL quenching solution (50% MeOH, 25% ACN, 25% H2O, and 200 nM labetalol as internal standard). After plates were vortexed, they were centrifuged for 30 minutes to remove proteins. About 100 μL supernatant was removed to a new plate and diluted with 150 μL water. About 20 μL of the mixture was injected into an LC/MS/MS system to monitor the compound's response. In vitro measured t1/2 was used to calculate Clint values.
A general note: Liver microsomes are vesicles of endoplasmic reticulum, rich in cytochrome P450 enzymes.

Data set [4] can be described thus: Liver microsomal stability (human). It counts as in vitro ADME. The conditions noted are these: human liver microsomes 0.5 mg/mL, 1 μM compound, NADPH-regenerating system, 37° C. As to the method: as §1, §2, §3, §4, §5
For data set [5], the system named is HIV-1 (IIIB) in MT-4 cells. Nature of the data set: MT-4 HIV Assay. The data set is classed as cell-based. Particulars: Human immunodeficiency virus 1, MT4, 120 h; HIV-1 (IIIB) replication in MT-4 cells, 5 days incubation, Cell Titer Glo; read-out: EC50. On the procedure: Compounds were tested in a high-throughput 384-well assay format for their ability to inhibit the replication of HIV-1 (IIIB) in MT-4 cells. Compounds were serially diluted (1:3) in DMSO on 384-well polypropylene plates and further diluted 200-fold into complete RPMI media (10% FBS, 1% P/S) using the Biotek Micro Flow and Agilent ECHO acoustic dispenser. Each plate contained up to 8 test compounds, with negative (No Drug Control) and 5 μM AZT positive controls. MT-4 cells were pre-infected with 10 μL of either RPMI (mock-infected) or a fresh 1:250 dilution of an HIV-1 (IIIB) concentrated virus stock. Infected and uninfected MT-4 cells were further diluted in complete RPMI media and added to each plate using a Micro Flow dispenser. After 5 days incubation in a humidified and temperature controlled incubator (37° C.), Cell Titer Glo (Promega) was added to the assay plates to quantify the amount of luciferase. EC50 values were defined as the compound concentration that causes a 50% decrease in luminescence signal, and were calculated using a sigmoidal dose-response model to generate curve fits.
On the technique in general: In ATP-based viability assays light output follows the ATP content of the culture.

For data set [6] the following is noted: male, beagle, dog, in vivo.
Experimental: Pharmacokinetic Profiling Dog PK
as §6
Where [7] appears, read: 0.1N HCl, pH 1, simulated gastric fluid, read-out: Solubility, HCl, pH 1.0, RT.
Setting [8] is: PBS, pH 7.4, aqueous buffer, read-out: Solubility, PBS, pH 7.4, RT.

Molecules are shown by their SMILES. Converted amounts (≈) assume the structure as drawn. Structures can show the parent of a compound that is named as a salt. Where two headings read alike, the source gives them in different places.

A word on the solubility: it is the dissolved amount per volume that the medium holds. For orientation: bioavailability means the share of a dose that reaches the circulation, judged against a reference dose that is usually intravenous. Take `COC(=O)N[C@H](C(=O)N[C@@H](Cc1ccc(C#Cc2cnc(N3CC4CCC(C3)N4C3COC3)nc2)cc1)[C@@H](O)CN(Cc1c(F)cc(-c2ccn(C(F)F)n2)cc1F)NC(=O)[C@@H](NC(=O)OC)C(C)(C)C(F)(F)F)C(C)(C)C(F)(F)F` [Compound D, methyl ((5S,8S,9S,14S)-11-(4-(1-(difluoromethyl)-1H-pyrazol-3-yl)-2,6-difluorobenzyl)-16,16,16-trifluoro-9-hydroxy-15,15-dimethyl-8-(4-((2-(8-(oxetan-3-yl)-3,8-diazabicyclo[3.2.1]octan-3-yl)pyrimidin-5-yl)ethynyl)benzyl)-3,6,13-trioxo-5-(1,1,1-trifluoro-2-methylpropan-2-yl)-2-oxa-4,7,11,12-tetraazahexadecan-14-yl)carbamate, reference compound]: the solubility at 24 h in data set [1] (setting [7]) was 19.5 µM (≈ 22.5 µg/mL); in data set [1] (setting [8]), less than 1 µM. This compound came in with a bioavailability in data set [2] of 2.6 ± 1.1%.

Usually EC50 stands for the midpoint of the concentration-response curve. As for `COC(=O)N[C@H](C(=O)N[C@@H](Cc1ccc(C#Cc2cnc(N3CC4CCC(C3)N4C3COC3)nc2)cc1)[C@H](CN(Cc1c(F)cc(-c2ccn(C(F)F)n2)cc1F)NC(=O)[C@@H](NC(=O)OC)C(C)(C)C(F)(F)F)OC=O)C(C)(C)C(F)(F)F` [Example 1, (5S,10S,11S,14S)-8-(4-(1-(difluoromethyl)-1H-pyrazol-3-yl)-2,6-difluorobenzyl)-11-(4-((2-(8-(oxetan-3-yl)-3,8-diazabicyclo[3.2.1]octan-3-yl)pyrimidin-5-yl)ethynyl)benzyl)-3,6,13,16-tetraoxo-5,14-bis(1,1,1-trifluoro-2-methylpropan-2-yl)-2,17-dioxa-4,7,8,12,15-pentaazaoctadecan-10-yl formate], the “Rat. Pred. Cl. (L/H/kg)” value in data set [3] is less than 0.4 L/H/kg. The values for the solubility at 24 h in data set [1] (setting [7]) and in data set [1] (setting [8]) were 20 µM and less than 1 µM, respectively. Further, in data set [4], the “Human Pred Cl. (L/H/kg)” value was found to be 0.37 L/H/kg. Further, in data set [5], the EC50 turned out to be 4.62 nM.

Take `COC(=O)N[C@H](C(=O)N[C@@H](Cc1ccc(C#Cc2cnc(N3CC4CCC(C3)N4C3COC3)nc2)cc1)[C@H](CN(Cc1c(F)cc(-c2ccn(C(F)F)n2)cc1F)NC(=O)[C@@H](NC(=O)OC)C(C)(C)C(F)(F)F)OC(=O)CCCN1CCOCC1)C(C)(C)C(F)(F)F` [Example 2, (5S,10S,11S,14S)-8-(4-(1-(difluoromethyl)-1H-pyrazol-3-yl)-2,6-difluorobenzyl)-11-(4-((2-(8-(oxetan-3-yl)-3,8-diazabicyclo[3.2.1]octan-3-yl)pyrimidin-5-yl)ethynyl)benzyl)-3,6,13,16-tetraoxo-5,14-bis(1,1,1-trifluoro-2-methylpropan-2-yl)-2,17-dioxa-4,7,8,12,15-pentaazaoctadecan-10-yl 4-morpholinobutanoate]: the “Rat. Pred. Cl. (L/H/kg)” value in data set [3] was determined as 0.84 L/H/kg. The solubility at 24 h is 81 µM (≈ 106 µg/mL) in data set [1] (setting [7]) and less than 1 µM in data set [1] (setting [8]). Moreover, the “Human Pred Cl. (L/H/kg)” value in data set [4] worked out at 0.53 L/H/kg. Moreover, the EC50 in data set [5] was 56.6 nM.

Take `COC(=O)N[C@H](C(=O)N[C@@H](Cc1ccc(C#Cc2cnc(N3CC4CCC(C3)N4C3COC3)nc2)cc1)[C@H](CN(Cc1c(F)cc(-c2ccn(C(F)F)n2)cc1F)NC(=O)[C@@H](NC(=O)OC)C(C)(C)C(F)(F)F)OC(=O)c1cccnc1)C(C)(C)C(F)(F)F` [Example 5, (5S,10S,11S,14S)-8-(4-(1-(difluoromethyl)-1H-pyrazol-3-yl)-2,6-difluorobenzyl)-11-(4-((2-(8-(oxetan-3-yl)-3,8-diazabicyclo[3.2.1]octan-3-yl)pyrimidin-5-yl)ethynyl)benzyl)-3,6,13,16-tetraoxo-5,14-bis(1,1,1-trifluoro-2-methylpropan-2-yl)-2,17-dioxa-4,7,8,12,15-pentaazaoctadecan-10-yl nicotinate]: the “Rat. Pred. Cl. (L/H/kg)” value in data set [3] came out at 0.58 L/H/kg. Further, the solubility at 24 h in data set [1] (setting [7]) is 89.2 µM (≈ 112 µg/mL); in data set [1] (setting [8]), less than 1 µM. In data set [4], the “Human Pred Cl. (L/H/kg)” value worked out at 0.28 L/H/kg. Moreover, the EC50 in data set [5] turned out to be 1140 nM.

Regarding `COC(=O)N[C@H](C(=O)N[C@@H](Cc1ccc(C#Cc2cnc(N3CC4CCC(C3)N4C3COC3)nc2)cc1)[C@H](CN(Cc1c(F)cc(-c2ccn(C(F)F)n2)cc1F)NC(=O)[C@@H](NC(=O)OC)C(C)(C)C(F)(F)F)OC(=O)c1ccccn1)C(C)(C)C(F)(F)F` [Example 6, (5S,10S,11S,14S)-8-(4-(1-(difluoromethyl)-1H-pyrazol-3-yl)-2,6-difluorobenzyl)-11-(4-((2-(8-(oxetan-3-yl)-3,8-diazabicyclo[3.2.1]octan-3-yl)pyrimidin-5-yl)ethynyl)benzyl)-3,6,13,16-tetraoxo-5,14-bis(1,1,1-trifluoro-2-methylpropan-2-yl)-2,17-dioxa-4,7,8,12,15-pentaazaoctadecan-10-yl picolinate], in data set [3], the “Rat. Pred. Cl. (L/H/kg)” value is listed as less than 0.4 L/H/kg. The solubility at 24 h was 38.5 µM (≈ 48.6 µg/mL) in data set [1] (setting [7]) and less than 1 µM in data set [1] (setting [8]). Besides, the “Human Pred Cl. (L/H/kg)” value in data set [4] worked out at 0.29 L/H/kg. The EC50 in data set [5] was determined as 278 nM.

As to `COC(=O)N[C@H](C(=O)N[C@@H](Cc1ccc(C#Cc2cnc(N3CC4CCC(C3)N4C3COC3)nc2)cc1)[C@H](CN(Cc1c(F)cc(-c2ccn(C(F)F)n2)cc1F)NC(=O)[C@@H](NC(=O)OC)C(C)(C)C(F)(F)F)OC(=O)OCOP(=O)(O)O)C(C)(C)C(F)(F)F` [Example 11, methyl ((5S,10S,11S,14S)-8-(4-(1-(difluoromethyl)-1H-pyrazol-3-yl)-2,6-difluorobenzyl)-16,16,16-trifluoro-15,15-dimethyl-11-(4-((2-(8-(oxetan-3-yl)-3,8-diazabicyclo[3.2.1]octan-3-yl)pyrimidin-5-yl)ethynyl)benzyl)-3,6,13-trioxo-10-((((phosphonooxy)methoxy)carbonyl)oxy)-5-(1,1,1-trifluoro-2-methylpropan-2-yl)-2-oxa-4,7,8,12-tetraazahexadecan-14-yl)carbamate], the “bioavailability of compound D” value in data set [6] was determined as 5.5±2.6%.

In the case of `COC(=O)N[C@H](C(=O)N[C@@H](Cc1ccc(C#Cc2cnc(N3CC4CCC(C3)N4C3COC3)nc2)cc1)[C@H](CN(Cc1c(F)cc(-c2ccn(C(F)F)n2)cc1F)NC(=O)[C@@H](NC(=O)OC)C(C)(C)C(F)(F)F)OP(=O)(O)O)C(C)(C)C(F)(F)F` [Example 12, methyl ((5S,10S,11S,14S)-8-(4-(1-(difluoromethyl)-1H-pyrazol-3-yl)-2,6-difluorobenzyl)-16,16,16-trifluoro-15,15-dimethyl-11-(4-((2-(8-(oxetan-3-yl)-3,8-diazabicyclo[3.2.1]octan-3-yl)pyrimidin-5-yl)ethynyl)benzyl)-3,6,13-trioxo-10-(phosphonooxy)-5-(1,1,1-trifluoro-2-methylpropan-2-yl)-2-oxa-4,7,8,12-tetraazahexadecan-14-yl)carbamate], the “Rat. Pred. Cl. (L/H/kg)” value in data set [3] was found to be 0.91 L/H/kg. Besides, the results for the solubility at 24 h in data set [1] (setting [7]) and in data set [1] (setting [8]) were 13.1 µM (≈ 16.2 µg/mL) and 84.6 µM (≈ 105 µg/mL), respectively. The “Human Pred Cl. (L/H/kg)” value in data set [4] was 0.47 L/H/kg.
